Here are results for 2 compounds from paper PMC9728921, “Characterization of a KDM5 small molecule inhibitor with antiviral activity against hepatitis B virus” (PLOS ONE, 2022).

The structures appear in SMILES notation.

The target of one experiment is T1, SET7/9 (Homo sapiens, UniProt Q8WTS6).
T1 construct: 2-366; purchased RBC (read as Reaction Biology Corporation, named)
The experiment in a line: Histone methyltransferase enzymatic assay, SET7/9. It counts as biochemical. The conditions noted are these: enzyme conc. 100 nM. The protocol: (§1) Histone methyltransferase assays were performed in 96-well half-area optiplates (PerkinElmer) at room temperature. All concentrations are final unless noted otherwise. Compounds were serially diluted in DMSO and the final DMSO concentration was 1%. A 24 μL reaction mixture contained compound, enzyme, 200 nM of nucleosome or histone substrate, 400 nM ^3H-SAM (83.1 Ci/mmol), 50 mM Tris-HCl (pH 8.0), 50 mM NaCl, 5 mM MgCl2, 1 mM DTT, and 0.01% Tween-20. The plate was sealed, mixed on a Titramax plate shaker at 1200 rpm for 30 sec, and incubated at room temperature for 60 min. The reaction was quenched by addition of 24 μL mixture containing 5 mg/mL PVT-PEI beads and 300 μM unlabeled SAM in water. The plate was sealed, mixed as previously noted, incubated overnight, and read on a TopCount plate reader (PerkinElmer).
(§2) Data was analyzed using GraphPad Prism 6.0 (La Jolla, CA). […] IC50 values were calculated as an average of at least two independent experiments.

In a further experiment the target is KDM3A (Homo sapiens, UniProt Q9Y4C1). The experiment in a line: KDM3A enzymatic assay (AlphaLISA). The class given is biochemical. As for the experimental part:
The following assay protocol was used for all histone demethylases tested except KDM1A, KDM5A, B, and D, which are described below. Compounds were serially diluted into a 384-well Alpha plate as a DMSO solution and mixed with 5 μL reaction buffer (buffer A) containing 50 mM HEPES (pH 7.0), 0.1% BSA, and 0.003% Tween-20. The enzyme of interest was pre-incubated with 15 μM of Fe^2+ for 10 min (except 30 min for KDM2B) in reaction buffer A. 5 μL of the enzyme mixture was added to each of the compound-containing wells and incubated for 10 min. The reaction was started by addition of a 5 μL mixture containing 300 nM peptide substrate, 75 μM L-ascorbic acid, and 30 μM α-ketoglutarate in buffer A. This final 15 μL of reaction mixture was incubated for 20 min for KDM5B and 1 hour for the other KDM enzymes. The reaction was quenched with 10 μL of diluted AlphaLISA Acceptor beads (1:400) in Epigenetics Buffer and incubated for 60 min. The Donor beads were diluted 1:400 into Epigenetics Buffer in the dark and 10 μL of this was added to each well and incubated for another 60 min in the dark. The assay plates were read on an Enspire plate reader (PerkinElmer) using a standard AlphaLISA program.
as §2
(In general: In Alpha technology, singlet oxygen from a donor bead excites a nearby acceptor bead.)

Another experiment deals with T2, PRMT1 (Homo sapiens, UniProt Q99873).
T2 construct: 2-371
T2 sequence (Q99873 2-371): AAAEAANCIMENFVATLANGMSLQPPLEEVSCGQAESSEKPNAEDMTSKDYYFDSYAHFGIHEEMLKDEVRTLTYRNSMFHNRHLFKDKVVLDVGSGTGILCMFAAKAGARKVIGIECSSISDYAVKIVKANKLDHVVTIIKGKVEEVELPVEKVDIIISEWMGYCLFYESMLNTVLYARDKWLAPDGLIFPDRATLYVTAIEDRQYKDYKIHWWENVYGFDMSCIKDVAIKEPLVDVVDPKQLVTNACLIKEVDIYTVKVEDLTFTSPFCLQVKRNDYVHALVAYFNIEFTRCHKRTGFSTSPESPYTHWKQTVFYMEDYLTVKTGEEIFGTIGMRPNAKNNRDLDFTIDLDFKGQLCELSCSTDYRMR
The experiment in a line: Histone methyltransferase enzymatic assay, PRMT1. It counts as biochemical. To be noted: enzyme conc. 100 nM. As for the experimental part: as §1, §2

For a further experiment, the target named is T3, SIRT-1 (Homo sapiens, UniProt Q96EB6).
T3 construct: 193-741; purchased BPS
T3 sequence (Q96EB6 193-741): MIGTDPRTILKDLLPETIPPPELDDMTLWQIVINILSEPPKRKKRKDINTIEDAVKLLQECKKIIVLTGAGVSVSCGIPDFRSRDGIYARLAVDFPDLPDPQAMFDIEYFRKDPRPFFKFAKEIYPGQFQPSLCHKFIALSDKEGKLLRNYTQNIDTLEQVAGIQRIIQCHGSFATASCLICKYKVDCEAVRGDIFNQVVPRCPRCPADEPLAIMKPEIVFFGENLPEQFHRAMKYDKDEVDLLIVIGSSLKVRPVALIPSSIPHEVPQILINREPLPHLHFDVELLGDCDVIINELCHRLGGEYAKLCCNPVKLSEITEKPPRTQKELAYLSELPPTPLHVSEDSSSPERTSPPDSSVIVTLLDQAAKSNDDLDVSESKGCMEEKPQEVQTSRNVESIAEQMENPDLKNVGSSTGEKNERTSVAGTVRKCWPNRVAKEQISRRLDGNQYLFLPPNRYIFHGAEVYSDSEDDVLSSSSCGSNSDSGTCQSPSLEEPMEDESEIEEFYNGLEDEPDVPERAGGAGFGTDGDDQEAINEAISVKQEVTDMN
The experiment in a line: SIRT-1 histone deacetylase assay (AlphaLISA). It counts as biochemical. To be noted: enzyme conc. 5 nM. The protocol: The assay plates were read on an Enspire plate reader (PerkinElmer) using a standard AlphaLISA program.
as §2

The test system of experiment [1] is host and viral transcriptomes in PHH. The experiment in a line: RNA-seq of HBV-infected PHH. It counts as cell-based, human. To be noted: 0.03, 0.3, or 10 μM; days 1, 3, 10, 13. The protocol:
(D) Hallmark Gene Set. […] For comparison, downregulation of HBV mRNA for same dose and time regiment is shown at the top.
Library building and sequencing for RNA-seq of PHH and rat liver was performed on all samples at EA Genomics/Q2 Solutions (Morrisville, NC). Approximately 100 mg of rat liver tissue from the left later lobe was flash frozen immediately after collection. PHH were lysed into RLT buffer (Qiagen; 79216) and immediately frozen. Liver/PHH samples were homogenized in QIAzol Lysis Reagent (79306) and after addition of chloroform the samples were separated into aqueous and organic phases by centrifugation. Ethanol was added to the upper aqueous phase and the sample was applied to an RNeasy Mini spin column (74104) for purification and RNA eluted with water. Libraries were prepared using the Illumina TruSeq stranded mRNA sample preparation kit according to the manufacturer’s protocol (Illumina, Inc., Hayward, CA; RS-122-2103). Approximately 30 million 2 x 50 bp paired-end reads were collected per sample using the Illumina HiSeq2000 sequencing platform. Sequencing reads were aligned to the human, rat, or HBV genomes by STAR [49]. The Bioconductor packages edgeR [50] and limma were used to normalize sequence count data (counts per million; cpm) and conduct differential gene expression analysis. The false discovery rate (FDR) was calculated using the Benjamini-Hochberg method.

KDM3A, sequence (Q9Y4C1 whole entry): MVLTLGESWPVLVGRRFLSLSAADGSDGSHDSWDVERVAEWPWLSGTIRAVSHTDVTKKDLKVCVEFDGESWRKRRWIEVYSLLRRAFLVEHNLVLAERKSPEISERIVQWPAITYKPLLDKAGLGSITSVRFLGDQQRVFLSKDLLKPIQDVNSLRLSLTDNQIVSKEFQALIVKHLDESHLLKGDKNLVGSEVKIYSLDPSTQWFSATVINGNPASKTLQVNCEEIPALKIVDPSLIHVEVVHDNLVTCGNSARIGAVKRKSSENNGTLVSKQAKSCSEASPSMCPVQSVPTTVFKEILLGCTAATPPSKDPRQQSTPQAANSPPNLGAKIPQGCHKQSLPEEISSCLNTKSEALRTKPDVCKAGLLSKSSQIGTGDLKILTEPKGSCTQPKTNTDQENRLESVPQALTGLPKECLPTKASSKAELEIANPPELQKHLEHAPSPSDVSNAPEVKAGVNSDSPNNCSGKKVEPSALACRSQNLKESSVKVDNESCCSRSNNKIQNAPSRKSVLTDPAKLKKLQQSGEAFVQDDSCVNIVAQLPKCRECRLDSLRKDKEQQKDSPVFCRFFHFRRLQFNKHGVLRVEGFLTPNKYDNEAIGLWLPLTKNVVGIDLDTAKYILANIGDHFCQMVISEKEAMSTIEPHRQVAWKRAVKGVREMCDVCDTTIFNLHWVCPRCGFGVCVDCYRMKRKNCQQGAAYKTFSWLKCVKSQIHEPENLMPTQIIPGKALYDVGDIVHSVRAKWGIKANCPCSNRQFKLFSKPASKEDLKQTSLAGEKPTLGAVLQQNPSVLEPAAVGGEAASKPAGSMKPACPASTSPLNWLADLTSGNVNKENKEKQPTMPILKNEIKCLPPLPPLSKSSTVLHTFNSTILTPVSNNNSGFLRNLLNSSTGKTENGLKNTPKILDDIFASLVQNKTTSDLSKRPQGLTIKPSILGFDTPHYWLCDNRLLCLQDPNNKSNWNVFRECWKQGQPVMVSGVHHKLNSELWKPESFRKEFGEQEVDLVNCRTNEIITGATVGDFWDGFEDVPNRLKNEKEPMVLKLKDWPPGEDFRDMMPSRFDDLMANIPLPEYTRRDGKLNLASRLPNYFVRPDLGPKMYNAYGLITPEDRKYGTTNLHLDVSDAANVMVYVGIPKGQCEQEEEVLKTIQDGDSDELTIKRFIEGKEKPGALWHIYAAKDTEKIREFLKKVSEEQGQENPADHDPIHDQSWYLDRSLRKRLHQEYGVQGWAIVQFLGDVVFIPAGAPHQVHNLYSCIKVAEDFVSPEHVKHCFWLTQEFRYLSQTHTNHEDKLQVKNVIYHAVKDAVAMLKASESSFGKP
T1 sequence (Q8WTS6 2-366): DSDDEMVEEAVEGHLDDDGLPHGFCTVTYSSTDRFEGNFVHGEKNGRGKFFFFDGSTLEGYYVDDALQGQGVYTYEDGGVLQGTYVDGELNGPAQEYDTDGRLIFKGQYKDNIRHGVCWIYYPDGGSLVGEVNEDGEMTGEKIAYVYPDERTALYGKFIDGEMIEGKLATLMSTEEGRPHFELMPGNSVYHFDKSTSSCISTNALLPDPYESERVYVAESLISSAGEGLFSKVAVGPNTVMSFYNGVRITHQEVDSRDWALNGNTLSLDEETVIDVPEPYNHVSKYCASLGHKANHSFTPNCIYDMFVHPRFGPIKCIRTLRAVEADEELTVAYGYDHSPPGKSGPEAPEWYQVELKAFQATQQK

As to `CCN(CCN(C)C)C(=O)CNCc1cc(C(=O)O)ccn1` [GS-080], the IC50 (commonly the midpoint of a concentration-inhibition curve) against SET7/9 is more than 100 µM; against KDM3A (enzyme concentration 0.3 nM), 1.7 µM; against PRMT1, more than 100 µM; against SIRT-1, more than 100 µM. The “Fold Selectivity Compared to KDM5A” value on KDM3A (IC50 of KDM3A over KDM5A) is > 4,720 fold.

In the case of `CCOC(=O)c1ccnc(CNCC(=O)N(CC)CCN(C)C)c1` [GS-5801], the “levels of HBV mRNA as measured by RNA-seq” value in experiment [1] was “decreased after GS-5801 treatment in a dose and time dependent manner”.
